In patent publication EP2140864A2 (H. Lundbeck A/S, priority 2001, dated 2002) one finds Ki data, which are given here for 63 compounds.

The structures appear in SMILES notation.

One assay deals with T1, human GAL3 receptor (Homo sapiens, UniProt O60755).
T1 construct: expressed in transfected cells
T1 sequence (O60755 1-368): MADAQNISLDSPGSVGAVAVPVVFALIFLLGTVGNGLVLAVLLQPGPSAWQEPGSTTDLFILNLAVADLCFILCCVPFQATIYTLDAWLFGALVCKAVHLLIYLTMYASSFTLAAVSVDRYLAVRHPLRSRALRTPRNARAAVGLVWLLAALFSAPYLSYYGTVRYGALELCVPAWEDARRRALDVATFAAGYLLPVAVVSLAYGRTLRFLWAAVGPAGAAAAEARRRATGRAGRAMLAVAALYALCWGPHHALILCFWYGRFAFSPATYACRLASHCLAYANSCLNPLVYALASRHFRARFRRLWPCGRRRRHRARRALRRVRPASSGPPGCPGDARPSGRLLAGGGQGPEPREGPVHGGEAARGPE
The experiment in a line: Radioligand binding at cloned human GAL3 receptor. As to conditions: indolones, cloned human receptor; read-out: Ki GalR3. In short, it runs like this:
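Compound vehicle, as final assay concentration, was 3% DMSO (indolones) or 1% ethanol/0.09% polypuronic acid F-127 (pyrimidines). Binding measured on fresh or frozen membranes of stably transfected LM(tk-) mouse fibroblasts carrying cloned human GAL3, in pH 7.4 HEPES buffer; values derived by nonlinear regression.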
With `Cc1noc(C)c1CN1C(=O)/C(=N\c2cccc(C(F)(F)F)c2)c2ccccc21` [Example 275], the Ki turned out to be 595 nM.
Take `O=C1/C(=N\c2ccc(Cl)cc2)c2ccccc2N1c1ccsc1` [Example 261, (3Z)-3-[(4-CHLOROPHENYL)IMINO]-1-(3-THIENYL)-1,3-DIHYDRO-2H-INDOL-2-ONE]: the Ki turned out to be 34 nM.
On the same count and under the same terms, under `O=C1/C(=N\c2ccc(I)cc2)c2ccccc2N1c1ccccc1` [Example 283, (3Z)-3-[(4-IODOPHENYL)IMINO]-1-PHENYL-1,3-DIHYDRO-2H-INDOL-2-ONE] stands 33 nM.
On the same count and under the same terms, under `O=C1/C(=N\c2cccc(C(F)(F)F)c2)c2ccccc2N1Cc1cccnc1` [Example 277] stands 198 nM; under `N#Cc1cccc(/N=C2\C(=O)N(c3ccccc3)c3ccccc32)c1` [Example 288, 3-{[(3Z)-2-OXO-1-PHENYL-1,2-DIHYDRO-3H-INDOL-3-YLIDENE]AMINO}BENZONITRILE], 39 nM; under `O=C1/C(=N\c2ccc(F)c(F)c2)c2ccccc2N1Cc1ccccn1` [Example 278], 340 nM.
Same read-out and setting: under `O=C1/C(=N\c2cc(Cl)cc(Cl)c2)c2ccccc2N1Cc1cccnc1` [Example 279] stands 81 nM; under `O=C1/C(=N\c2ccc(Cl)nc2)c2ccccc2N1c1ccsc1` [Example 267], 234 nM.
`O=C1C(=Nc2cccc(C(F)(F)F)c2)c2ccccc2N1Cc1csc2ccc(Cl)cc12` [Example 111, 1-[(5-CHLORO-1-BENZOTHIEN-3-YL)METHYL]-3-{[3-(TRIFLUOROMETHYL)PHENYL]IMINO}-1,3-DIHYDRO-2H-INDOL-2-ONE]: the inhibition constant (Ki) is 1180 nM.
Same read-out and setting: in the case of `O=C1C(=Nc2ccc3[nH]ccc3c2)c2ccccc2N1c1ccccc1` (mixture of isomers) [Example 112, 3-(1H-INDOL-5-YLIMINO)-1-PHENYL-1,3-DIHYDRO-2H-INDOL-2-ONE] it was 2320 nM.
The same measure, in the same setting: in the case of `CC(C)c1cccc(/N=C2\C(=O)N(c3ccsc3)c3ccccc32)c1` [Example 295, (3Z)-3-[(3-ISOPROPYLPHENYL)IMINO]-1-(3-THIENYL)-1,3-DIHYDRO-2H-INDOL-2-ONE] it was 242 nM.
On the same count and under the same terms, under `Cc1cccc(/N=C2\C(=O)N(c3ccsc3)c3ccccc32)c1` [Example 271] stands 114 nM; under `O=C1/C(=N\c2ccc3ncccc3c2)c2ccccc2N1c1ccsc1` [Example 291, (3Z)-3-(6-QUINOLINYLIMINO)-1-(3-THIENYL)-1,3-DIHYDRO-2H-INDOL-2-ONE], 271 nM.
As for `O=C1/C(=N\c2cc(Cl)cc(Cl)c2)c2ccccc2N1Cc1ccccn1` [Example 274], the Ki was found to be 174 nM.
In the case of `O=C1/C(=N\c2cccc(C(F)(F)F)c2)c2ccccc2N1Cc1ccccn1` [Example 273], the Ki worked out at 202 nM.
Same read-out and setting: in the case of `O=C1/C(=N\c2ccc(C3CCCCC3)cc2)c2ccccc2N1c1ccsc1` [Example 296, (3Z)-3-[(4-CYCLOHEXYLPHENYL)IMINO]-1-(3-THIENYL)-1,3-DIHYDRO-2H-INDOL-2-ONE] it was 82 nM.

The same assay, now with this note: pyrimidines, cloned human receptor; read-out: Ki GalR3.
In the case of `Cc1ccc(Nc2cc(N(C)C)nc(N3CCN(c4cnccn4)CC3)n2)cc1` [Example 181], the inhibition constant (Ki) worked out at 750 nM.
On the same count and under the same terms, in the case of `CN(C)c1cc(NC2CCC(C(C)(C)C)CC2)nc(N2CCN(Cc3ccccc3)CC2)n1` (stereo not drawn) [Example 169] it was 77 nM; in that of `Cc1ccc(Nc2cc(N(C)C)nc(NCCc3ccccc3)n2)cc1` [Example 250], 119 nM.
On the same count and under the same terms, under `COc1cccc(Nc2cc(N(C)C)nc(N3CCN(c4ccc(Br)cn4)CC3)n2)c1` [Example 143] stands 144 nM.
As for `Cc1ccc(Nc2cc(N(C)C)nc(N3CCN(c4ccc(C(N)=O)cn4)CC3)n2)cc1` [Example 141, 6-{4-[4-(DIMETHYLAMINO)-6-(4-TOLUDINO)-2-PYRIMIDINYL] -1-PIPERAZINYL}NICOTINAMIDE], the inhibitory constant (Ki) was 509 nM.
Same read-out and setting: in the case of `CN(C)c1cc(Nc2ccc(C(F)(F)F)cc2Cl)nc(N2CCN(Cc3ccccc3)CC2)n1` [Example 244] it was 55 nM; in that of `COc1cccc(Nc2cc(N(C)C)nc(N3CCN(C4CCCCC4)CC3)n2)c1` [Example 163], 500 nM.
Same read-out and setting: in the case of `CN(C)c1cc(Nc2cccc(OCc3ccccc3)c2)nc(N2CCN(c3ccccn3)CC2)n1` [Example 115] it was 13 nM.
With `CN(C)c1cc(Nc2cc(Cl)ccc2Cl)nc(N2CCN(c3ccccn3)CC2)n1` [Example 208], the inhibition constant (Ki) came out at 120 nM.
Regarding `Cc1ccc(Nc2cc(N(C)C)nc(N3CCN(c4ccc(O)cc4)CC3)n2)cc1` [Example 116], the Ki is 479 nM.
Same read-out and setting: under `COc1cccc(Nc2cc(N(C)C)nc(N3CCN(Cc4ccccn4)CC3)n2)c1` [Example 144] stands 529 nM; under `CN(C)c1cc(NC2C3CC4CC(C3)CC2C4)nc(N2CCN(Cc3ccccc3)CC2)n1` (stereo not drawn) [Example 168], 50 nM.
Still for that read-out and setting: under `Cc1ccc(Nc2cc(N(C)C)nc(N3CCN(Cc4ccco4)CC3)n2)cc1` [Example 231] stands 136 nM; under `Cc1ccc(Nc2cc(N(C)C)nc(N3CCN(Cc4ccccc4)CC3)n2)cc1Cl` [Example 172], 20 nM.
Still for that read-out and setting: under `Cc1ccc(Nc2cc(N(C)C)nc(N3CCN(CCc4ccccc4)CC3)n2)cc1` [Example 159] stands 180 nM; under `CN(C)c1cc(Nc2ccc3ccccc3c2)nc(Nc2ccccc2)n1` [Example 65], 329 nM; under `CN(C)c1cc(Nc2cccc(OCc3ccccc3)c2)nc(N2CCN(c3cccc(Br)c3)CC2)n1` [Example 203], 52 nM.
Take `CN(C)c1cc(N[C@H]2CC3CC[C@]2(C)C3(C)C)nc(N2CCN(Cc3ccccc3)CC2)n1` [Example 167]: the inhibitory constant (Ki) worked out at 50 nM.
On the same count and under the same terms, in the case of `CN(C)c1cc(Nc2ccc(Br)cc2)nc(Nc2ccccc2)n1` [Example 59] it was 566 nM.
Still for that read-out and setting: in the case of `Cc1ccc(Nc2cc(N3CCCCC3)nc(N3CCN(c4c(C(F)(F)F)ccc[n+]4[O-])CC3)n2)cc1` [Example 249] it was 386 nM; in that of `CN(C)c1cc(Nc2cc(F)ccc2Cl)nc(N2CCN(c3ccccn3)CC2)n1` [Example 222], 847 nM.
On to `CCCCCCCc1ccc(Nc2cc(N(C)C)nc(N3CCN(c4ccccn4)CC3)n2)cc1` [Example 189], for which the Ki worked out at 26 nM.
On the same count and under the same terms, in the case of `Cc1ccc(Nc2cc(N(C)C)nc(N3CCN(c4ccc(Br)cn4)CC3)n2)cc1` [Example 140] it was 169 nM.
On the same count and under the same terms, under `Cc1ccc(Nc2cc(N(C)C)nc(N(C)CCc3ccccc3)n2)cc1` [Example 248] stands 33 nM; under `COc1cccc(Nc2cc(N(C)C)nc(N3CCN(Cc4ccsc4)CC3)n2)c1` [Example 146], 72 nM.
On to `Cc1ccc(Nc2cc(N(C)C)nc(N3CCN(c4ccccn4)CC3)n2)cc1C` [Example 190], for which the Ki was 153 nM.
Turning to `Cc1ccc(Nc2cc(N(C)C)nc(Nc3ccc(C)cc3)n2)cc1` [Example 56], the Ki is 794 nM.
`CN(C)c1cc(Nc2ccc(C3CCCCC3)cc2)nc(N2CCN(c3ccccn3)CC2)n1` [Example 121]: the Ki is 21 nM.
Same read-out and setting: under `CN(C)c1cc(Nc2cccc(I)c2)nc(N2CCN(c3ccccn3)CC2)n1` [Example 193] stands 244 nM; under `Cc1ccccc1Nc1cc(N(C)C)nc(Nc2ccccc2)n1` [Example 51], 987 nM; under `CN(C)c1cc(Nc2cccc(F)c2)nc(N2CCN(c3ccccn3)CC2)n1` [Example 206], 454 nM.
The same measure, in the same setting: under `CN(C)c1cc(Nc2ccc(Cc3ccccc3)cc2)nc(N2CCN(c3ccccn3)CC2)n1` [Example 188] stands 27 nM; under `Cc1ccc(Nc2cc(N(C)C)nc(NCCCc3ccccc3)n2)cc1` [Example 162], 42 nM; under `COc1cccc(Nc2cc(N(C)C)nc(N3CCN(CC4CCCCC4)CC3)n2)c1` [Example 145], 155 nM.
Same read-out and setting: under `CN(C)c1cc(Nc2ccc(Cl)c(Cl)c2)nc(N2CCN(c3ccccn3)CC2)n1` [Example 124] stands 36 nM.
With `CN(C)c1cc(Nc2cccc(C(F)(F)F)c2)nc(N2CCN(c3ccccn3)CC2)n1` [Example 125], the Ki is 75 nM.
The same measure, in the same setting: under `Cc1ccc(Nc2cc(N(C)C)nc(N3CCN(c4ccccn4)CC3)n2)c(Cl)c1` [Example 223] stands 559 nM; under `CN(C)c1cc(Nc2cccc(Cl)c2Cl)nc(N2CCN(c3ccccn3)CC2)n1` [Example 218], 616 nM.
The same measure, in the same setting: under `COc1cc(Nc2cc(N(C)C)nc(N3CCN(Cc4ccccc4)CC3)n2)cc(C(F)(F)F)c1` [Example 225] stands 66 nM; under `CN(C)c1cc(NC2CCCCC2)nc(Nc2ccccc2)n1` [Example 66], 699 nM.
As to `Cc1ccc(Nc2cc(N(C)C)nc(N3CCN(c4ccccn4)CC3)n2)cc1Br` [Example 240], the inhibition constant Ki turned out to be 77 nM.
Regarding `CN(C)c1cc(Nc2ccc(Br)cc2F)nc(N2CCN(c3ccccn3)CC2)n1` [Example 199], the inhibition constant (Ki) was determined as 199 nM.
Turning to `Cc1ccc(Nc2cc(N3CCCCC3)nc(Nc3ccc(C)cc3)n2)cc1` [Example 4], the inhibition constant Ki is 627 nM.
For `Cc1ccc(Nc2cc(N(C)C)nc(N3CCN(c4ccccn4)CC3)n2)c(Br)c1` [Example 204], the Ki amounted to 269 nM.
For `CCCc1ccccc1Nc1cc(N(C)C)nc(N2CCN(c3ccccn3)CC2)n1` [Example 185, N^4,N^4-dimethyl-N^6-(2-propylphenyl)-2-[4-(2-pyridinyl)-1-piperazinyl]-4,6-pyrimidinediamine], the Ki is 365 nM.
Same read-out and setting: under `CCCCCCCCc1ccc(Nc2cc(N(C)C)nc(N3CCN(c4ccccn4)CC3)n2)cc1` [Example 192] stands 18 nM; under `CN(C)c1cc(Nc2ccc(C(C)(C)C)cc2)nc(Nc2ccccc2)n1` [Example 63], 731 nM.

Usually Ki stands for a measure of affinity in units of concentration, obtained from inhibition or displacement.
